Assay results from US20090275099A1 (priority 2004, published 2009).

Legend:
[1] = system: B cells; assay: collapse of ΔΨm detected with DiOC6(3); format: cell-based; conditions: by 5 hours
Method: To detect O2^−, cells are incubated with DHE (10 μM) for 30 min at 37° C. and are analyzed by flow cytometry to measure ethidium fluorescence. Flow analysis of mitochondrial transmembrane potential (ψm) is conducted by labeling cells with DiOC6(3) (20 nM) for 15 min at 37 degrees C. A positive control for disruption of ψm is established using carbonyl cyanide m-chlorophenylhydrazone (CCCP, 50 μM). Caspase activation assays are performed with FAM-VAD-fluoromethylketone. Processing of the substrate is evaluated by flow cytometry.
To characterize the death mechanism engaged by Bz-423, intracellular ROS, ΔΨm, cytochrome c release, caspase activation, and DNA fragmentation were measured over time (the results presented are for B cells but do characterize the response in many different cell types). The first event detected after exposure to Bz-423 is an increase in the fraction of cells that stain with dihyroethedium (DHE), a redox-sensitive agent that reacts specifically with O2^−.
Collapse of ΔΨm was detected using DiOC6(3), a mitochondria-selective potentiometric probe.

[2] = system: keratinocytes; assay: intracellular ROS (DCF, flow cytometry); format: cell-based, human
Description: (§1) Foreskin tissue obtained from neonatal circumcisions was used as a source of epidermal keratinocytes and dermal fibroblasts. The use of foreskin tissue in this project was approved by the University of Michigan Institutional Review Board. Epidermal keratinocytes were isolated from foreskin tissue as described previously (see, e.g., Varani J, et al., (1994) J. Clin. Invest. 94:1747-1753; herein incorporated by reference in its entirety). Primary and early passage cells were maintained in Keratinocyte Growth Medium (KGM) (Cambrex Bioscience.). […]
(§2) 2′,7′-dichlorodihydrofluorescin diacetate (DCFH-DA, Molecular Probes, Eugene, Oreg.) was prepared as a 10 mM stock solution in DMSO prior to each use. […] After the indicated treatments, the fluorescence of the oxidized product 2′,7′-dichlorofluorescin (DCF) was monitored by flow cytometry using a FACSCalibur (BD Bioscience, San Diego, Calif.). For each sample, 10,000 events were recorded and the data analyzed to determine median fluorescence intensity.
(§3) Within 1 hour of treatment, Bz-423 increased ROS production in a dose-dependent manner in lymphoid cells. To determine if the anti-proliferative responses to Bz-423 in keratinocytes and fibroblasts similarly involve ROS generation, intracellular ROS levels in Bz-423 treated cells were measured. […]

[3] = system: fibroblasts; assay: intracellular ROS (DCF, flow cytometry); format: cell-based, human
Description: as §1, §2, §3

Compound: CN1C(=O)C(Cc2ccc3ccccc3c2)N=C(c2ccc(O)cc2)c2cc(Cl)ccc21 (stereo not drawn) [Bz-423]
- cells with collapse of ΔΨm [1]: > 90%
- lowest dose with an ROS response [2]: 250 nM
- lowest dose with an ROS response [3]: 250 nM
